Results: US10101331B2, “Methods of evaluating patients using E-cadherin or vimentin” (AGIOS PHARMACEUTICALS, INC, priority 2012, dated 2018)

System: NCI-H358 cell line
Test: TGFβ treatment of NCI-H358, western blot phenotype
Type: cell-based
Protocol: FIG. 4A depicts a western blot analysis of the non-small cell lung cancer cell line NCI-H358 for protein levels of E-cadherin, vimentin, PC ([…]), GLS (phosphate activated glutaminase), and actin (control).
In order to better understand the contribution of mesenchymal versus epithelial phenotype to GLS dependence, the NCI-H358 cell line was treated with TGFβ and the phenotype assayed.

Which “phenotype after TGFβ treatment” value (E-cadherin/vimentin expression) does the source give for “TGFβ: TGFβ used to induce EMT in the NCI-H358 cell line” here?
The value was “shift to a mesenchymal phenotype”.

And the “increase in GAC protein levels in the mesenchymal variant” value (TGFβ induced EMT)?
Its value is 2 fold.
